Results: article PMC11145868, “Protein target similarity is positive predictor of in vitro antipathogenic activity: a drug repurposing strategy for Plasmodium falciparum” (Journal of Cheminformatics, 2024)
Where a name gives a salt, the structure may show the parent alone. Read-outs that look alike come from different tables or passages of the source.

How the values were obtained:
[1] = Mammalian cell cytotoxicity assay, HepG2 (CellTiter-Glo, 72 h); conditions: human, HepG2 cells
[2] = system: P. falciparum Dd2-HLH; experiment: microbe, parasite or virus in culture; assay type: cell-based, Plasmodium falciparum; conditions: Plasmodium falciparum, read-out: Blood stage 72h EC50
[3] = system: P. berghei-luciferase sporozoites; experiment: microbe, parasite or virus in culture; assay type: cell-based, Plasmodium berghei; conditions: Plasmodium berghei, liver-stage parasites
[4] = Mammalian cell cytotoxicity assay, HEK293T (CellTiter-Glo, 72 h); conditions: human, HEK293T cells
[5] = system: P. falciparum Dd2-HLH; experiment: microbe, parasite or virus in culture; assay type: cell-based, Plasmodium falciparum; conditions: Plasmodium falciparum
[6] = HepG2, 48 hours in culture, read-out: Liver stage 48h EC50
[7] = DD2, 48 h, read-out: Blood stage 48h EC50
[8] = 48 h in culture, read-out: Liver 48 h EC50
[9] = DD2, Hec50, 48 h, read-out: Blood stage 48 h EC50
[10] = DD2, read-out: EC50 (antiplasmodial, quoted in discussion from Supplementary Table 1)

Row | SMILES | CC50 at 72 h [1] [nM] | EC50 ([2]; DD2, 72 h) [nM] | EC50 [3, 6] [nM] | CC50 at 72 h [4] [nM] | EC50 [5, 7] [nM] | EC50 [3, 8] [nM] | EC50 [5, 9] [nM] | EC50 ([2]; DD2, P. falciparum blood-stage parasites, 72 hours in culture) [nM] | EC50 ([5]; DD2, P. falciparum blood-stage parasites, 48 hours in culture, read-out: Blood stage 48h EC50) [nM] | EC50 [5, 10] [nM]
1 | N[C@H](C(=O)O)[C@@H]1CC(Cl)=NO1 [Acivicin] | 1700 | 545 | 1100 | 7730 | 209 |  |  |  |  | 
2 | CC1=C(c2ccc(O)cc2)[C@H](c2ccc(OCCN3CCCCC3)cc2)Oc2cc(O)ccc21 [Acolbifene] | 6210 | 728 | 2830 | 2990 | 218 |  |  |  |  | 
3 | Cc1cc(N)c2cc(NC(=O)Nc3ccc4nc(C)cc(N)c4c3)ccc2n1 [Aminoquinuride] | > 9990 | 449 | 3490 | > 9950 | 79 |  |  |  |  | 
4 | COC(=O)[C@]12CCC(C)(C)C[C@H]1[C@H]1C(=O)C=C3[C@@]4(C)C=C(C#N)C(=O)C(C)(C)[C@@H]4CC[C@@]3(C)[C@]1(C)CC2 [Bardoxolone methyl] | 557 | 750 | 155 | 208 | 340 |  |  |  |  | 
5 | COc1cc(N2CCC(N3CCN(C)CC3)CC2)ccc1Nc1ncc(Cl)c(Nc2ccccc2P(C)(C)=O)n1 [Brigatinib] | 136 | 346 | 3330 | 1390 | 99 |  |  |  |  | 
6 | O=C(NO)c1cnc(N2C[C@@H]3[C@H](C2)[C@H]3NCc2ccc3cc(F)ccc3n2)nc1 [CHR-3996] | 195 | 15 | 151 | 920 | 20 |  |  |  |  | 
7 | COc1ccc(-c2nc(N3CCOCC3)c3sc(CN(C)c4ncc(C(=O)NO)cn4)cc3n2)cn1 [CUDC-907, reference compound] | 3 | 18 |  | 27 | 8 | 39 | 7.5 |  |  | 
8 | CO[C@H]1C(=O)[C@]2(C)[C@@H](OC)C[C@H]3OC[C@@]3(OC(C)=O)[C@H]2[C@H](OC(=O)c2ccccc2)[C@]2(O)C[C@H](OC(=O)[C@H](O)[C@@H](NC(=O)OC(C)(C)C)c3ccccc3)C(C)=C1C2(C)C [Cabazitaxel, reference compound] | 784 | 8 |  | > 9950 |  | 43 | 6 |  |  | 
9 | CC(C)C(=O)OCC(=O)[C@@]12O[C@H](C3CCCCC3)O[C@@H]1C[C@H]1[C@@H]3CCC4=CC(=O)C=C[C@]4(C)[C@H]3[C@@H](O)C[C@@]12C [Ciclesonide] | > 9950 | 661 | 3330 |  | 199 |  |  |  |  | 
10 | CCN(CC)CC[n+]1ccc2c(C)c3[nH]c4ccc(O)cc4c3c(C)c2c1 [Datelliptium Chloride] | 505 | 193 | > 10000 | 4690 |  |  |  |  |  | 
11 | CC(=O)O[C@@]12CO[C@@H]1C[C@H](O)[C@@]1(C)C(=O)[C@H](O)C3=C(C)[C@@H](OC(=O)[C@H](O)[C@@H](NC(=O)OC(C)(C)C)c4ccccc4)C[C@@](O)([C@@H](OC(=O)c4ccccc4)[C@H]21)C3(C)C [Docetaxel] | 24 | 11 | 401 | > 9950 | 11 |  |  |  |  | 
12 | COc1cccc2c1C(=O)c1c(O)c3c(c(O)c1C2=O)C[C@@](O)(C(=O)CO)C[C@@H]3O[C@H]1C[C@H](N)[C@H](O)[C@H](C)O1 [Doxorubicin] | 44 | 250 | 1720 | 74 | 65 |  |  |  |  | 
13 | CCCCN(CCCC)CCC(O)c1cc2c(Cl)cc(Cl)cc2c2cc(C(F)(F)F)ccc12 (centres unmarked) [Halofantrine HCl] | > 9950 | 1 | 1880 | > 9950 |  |  |  |  |  | 
14 | CCCCCC(=O)O[C@]1(C(C)=O)CC[C@H]2[C@@H]3CCC4=CC(=O)CC[C@]4(C)[C@H]3CC[C@@]21C [Hydroxyprogesterone caproate] | 863 | 742 | 1710 | > 9950 | 550 |  |  |  |  | 
15 | CN(C)CCCN1c2ccccc2CCc2ccccc21 [Imipramine hydrochloride] | > 9950 | 963 | > 10000 | > 9950 | 180 |  |  |  |  | 
16 | C/C(=C\c1csc(C)n1)[C@@H]1C[C@@H]2O[C@]2(C)CCC[C@H](C)[C@H](O)[C@@H](C)C(=O)C(C)(C)[C@@H](O)CC(=O)N1 [Ixabepilone] | 7 |  | 867 | 15 | 42 |  |  |  |  | 
17 | c1ccc(Cn2c(N3CCNCC3)nc3ccccc32)cc1 [Lerisetron] | 236 | 267 | 1130 | > 9950 | 144 |  |  |  |  | 

Row | SMILES | CC50 at 72 h [1] [nM] | EC50 ([2]; DD2, 72 h) [nM] | EC50 [3, 6] [nM] | CC50 at 72 h [4] [nM] | EC50 [5, 7] [nM] | EC50 [3, 8] [nM] | EC50 [5, 9] [nM] | EC50 ([2]; DD2, P. falciparum blood-stage parasites, 72 hours in culture) [nM] | EC50 ([5]; DD2, P. falciparum blood-stage parasites, 48 hours in culture, read-out: Blood stage 48h EC50) [nM] | EC50 [5, 10] [nM]
18 | C[C@]12O[C@H](C[C@]1(O)CO)n1c3ccccc3c3c4c(c5c6ccccc6n2c5c31)CNC4=O [Lestaurtinib] | 29 |  | 1020 | 551 |  |  |  | 259 | 88 | 
19 | COCCNCc1ccc(-c2cc3nccc(Oc4ccc(NC(=O)C5(C(=O)Nc6ccc(F)cc6)CC5)cc4F)c3s2)nc1 [MG-516] | 1460 | 673 | 2180 | 2250 | 144 |  |  |  |  | 
20 | COc1ccc(-c2ccc3ncc4c(c3c2)n(-c2ccc(N3CCNCC3)c(C(F)(F)F)c2)c(=O)n4C)cn1 [NVP-BGT226, reference compound] | 3 | 6 | 1 | 35 | 1 | 0.5 | 0.6 |  |  | 
21 | C=C[C@H]1C[N@@]2CC[C@H]1C[C@@H]2[C@@H](O)c1ccnc2ccc(OC)cc12 [Quinidine] |  | 84 | > 10000 | > 9950 | 41 |  |  |  |  | 
22 | Cn1cc(CNCC2CCN(c3ncc(C(=O)NO)cn3)CC2)c2ccccc21 [Quisinostat, reference compound] |  | 3 |  | 33 |  | 8 | 1 |  |  | 
23 | COCCN1CCN(Cc2ccc(-c3n[nH]c4c3C(=O)c3c(NC(=O)NN5CCOCC5)cccc3-4)cc2)CC1 [RGB-286638] |  | 300 | 87 | 58 | 138 |  |  |  |  | 
24 | O=C(CCCCCCNC(=O)c1cnc(N(c2ccccc2)c2ccccc2)nc1)NO [Ricolinostat] |  | 770 | 4370 | > 9950 | 555 |  |  |  |  | 
25 | c1cc(-c2nc3ccc(-c4ccc5nc(-c6ccncc6)[nH]c5c4)cc3[nH]2)ccn1 [Ridinilazole] | 3110 | 90 | 215 | > 9950 |  |  |  |  |  | 
26 | CC[C@H](C(=O)N1CCCC[C@H]1C(=O)O[C@H](CCc1ccc(OC)c(OC)c1)c1cccc(OCC(=O)NCCNC(=O)COc2cccc([C@@H](CCc3ccc(OC)c(OC)c3)OC(=O)[C@@H]3CCCCN3C(=O)[C@@H](CC)c3cc(OC)c(OC)c(OC)c3)c2)c1)c1cc(OC)c(OC)c(OC)c1 [Rimiducid] |  | 411 | > 10000 | > 9950 | 59 |  |  |  |  | 
27 | CC(C)n1nc(-c2ccc3oc(N)nc3c2)c2c(N)ncnc21 [Sapanisertib] |  | 305 | 665 | 102 | 187 |  |  |  |  | 
28 | COCCn1c2c([n+](Cc3cnccn3)c1C)C(=O)c1ccccc1C2=O [Sepantronium bromide] |  | 82 | 10 | 56 | 21 |  |  |  |  | 
29 | CC(=O)Nc1cccc(-n2c(=O)n(C3CC3)c(=O)c3c(Nc4ccc(I)cc4F)n(C)c(=O)c(C)c32)c1 [Trametinib dimethyl sulfoxide] | 119 | 300 |  | > 9950 | 160 |  |  |  |  | 
30 | C/C=C/C[C@@H](C)C(=O)[C@H]1C(=O)N[C@@H](C(C)C)C(=O)N(C)CC(=O)N(C)[C@@H](CC(C)C)C(=O)N[C@@H](C(C)C)C(=O)N(C)[C@@H](CC(C)C)C(=O)N[C@@H](C)C(=O)N[C@H](C)C(=O)N(C)[C@@H](CC(C)C)C(=O)N(C)[C@@H](CC(C)C)C(=O)N(C)[C@@H](C(C)C)C(=O)N1C [Valspodar] |  | 370 | 3 | > 9950 | 307 |  |  |  |  | 
31 | CC[C@]1(O)C[C@@H]2CN(CCc3c([nH]c4ccccc34)[C@@](C(=O)OC)(c3cc4c(cc3OC)N(C)[C@H]3[C@@](O)(C(=O)OC)[C@H](OC(C)=O)[C@]5(CC)C=CCN6CC[C@]43[C@@H]65)C2)C1 [Vinblastine sulfate] |  | 24 | 1100 | 102 | 29 |  |  |  |  | 
32 | FC(F)c1nc2ccccc2n1-c1nc(N2CCOCC2)nc(N2CCOCC2)n1 [ZSTK-474] |  | 841 | 973 | 762 | 238 |  |  |  |  | 
33 | CCOC(=O)[C@H]1O[C@@H]1C(=O)N[C@@H](CC(C)C)C(=O)NCCC(C)C [aloxistatin, reference compound] |  | 69 | > 10000 | > 9950 |  |  |  |  |  | 31
34 | COc1ncc(-c2ccc3nccc(-c4ccnnc4)c3c2)cc1NS(=O)(=O)c1ccc(F)cc1F [omipalisib, reference compound] |  | 158 | 230 | 46 |  |  |  |  |  | 159
